Results from patent publication US20220304926A1, “PHARMACEUTICAL COMPOSITION COMPRISING A COLLOIDAL DISPERSION AND METHODS AND USES THEREOF” (PREBONA AB, priority 2019, published 2022).

How the values were obtained:
[1] = system: HCV subgenomic RNA replicon of genotype 1b in Huh7^A2HCV^Rep cells; assay: Luciferase activity assay, HCV replicon in vitro replication; type: cell-based; conditions: Hepatitis C virus, 500 nM
Text: A hepatoma cell line (Huh7-Lunet) designated Lunet-HlaA2-luc/neoET (Huh7^A2HCV^Rep) and Lunet-HlaA2 (Huh7^A2) were kindly provided by Dr. Volker Lohmann (UniversitätsKlinikum Heidelberg, Molekulare Virologie). The Lunet-HlaA2-luc/neoET expressed ectopically HLA-A2 and a selectable HCV subgenomic RNA replicon of genotype 1b harboring replication-enhancing mutations in NS3 and NS4 (Con1-ET). The replicon also expresses the selectable marker neomycin phosphotransferase, which inactivates the cytotoxic drug G418. The expression of non-structural proteins was driven by the encephalomyocarditis virus IRES (Robinson, M., Yang, H., Peng B. et al. 2010. Antimicrobial Agents and Chemotherapy. 54(8):3099-3106; Pasetto, A., Frelin, L. et al. 2012. J immunol. 189:4510-4519). The replicon cells expressed the firefly luciferase gene fused to the selectable marker by ubiquitin. As control, the parenteral cell line, designated Lunet-HlaA2, was used.
(§1) Cells were seeded in flat bottom 96-well plates (Nuncleon™ Δ Surface, Denmark) at a density of 5 000 cells/well in 100 μL of culture medium without antibiotics (G418, puromycin and blasticidin). […] The final concentration of DMSO never exceeded 0.2%. AGSOL 1000-5-5, diluted in culture medium, was added at several concentrations: 0.01 ng/mL, 0.1 ng/mL, 1 ng/mL, 10 ng/mL, 0.1 μg/mL, 1 μg/mL, 10 μg/mL and 100 μg/mL. AGSOL 100-5-5 was added as described above, excluding the concentration 100 μg/mL. Medium without added cells and cells without any inhibitors constituted negative controls. Each concentration of drug was tested in 5 unique wells and the same protocol was carried out for Huh7^A2HCV^Rep and Huh7^A2 cell lines. Inhibitors were refreshed daily. The experimental assays were performed three times with similar results.
The Lunet-HlaA2 (Huh7^A2) cell line was only used as negative control in this assay. The firefly luciferase gene expressed by the replicon cells catalyses the mono-oxygenation of beetle luciferin according to the reaction described in the following reaction scheme:
At time-points 24, 48, 72 and 96 hours post-addition of inhibitors, culture plates were removed from incubator into laminar flow hood and an equal volume of Luciferase assay reagent to that of the culture medium in each well was added. Three minutes were allowed for complete cell lysis, and subsequently the luminescence was measured. Absorbance and luminescence were read by Infinite 200 PRO reader (Tecan Group Ltd, Maennedorf, Switzerland).
The HCV in vitro replication was quantified by measuring the reporter gene expression. The Huh7^A2HCV^Rep cell line expresses both the HCV replicon and the firefly luciferase gene. The measurement of luciferase correlates with the HCV replication activity.

[2] = system: Huh7^A2HCV^Rep and Huh7^A2 cell lines; assay: MTT tetrazolium proliferation / cellular toxicity assay; type: cell-based
Procedure: as §1, with “Each concentration of drug was tested in 5 unique wells and the same protocol was carried out for Huh7^A2HCV^Rep and Huh7^A2 cell lines. Inhibitors were refreshed daily. The experimental assays were performed three times with similar results.” left out
The 3-[4,5-dimethyltiazol-2-yl]-2,5-diphenyl tetrazolium bromide is cleaved by mitochondrial dehydrogenases of viable cells, leading to purple formazan in the form of insoluble crystals in aqueous solutions but dissolved in acidified isopropanol. The resulting purple solution is spectrophotometrically measured. […]
At time-points 24, 48, 72 and 96 hours post-addition of inhibitors, culture plates were removed from incubator into laminar flow hood. […] The background absorbance of multi-well plates was measured at 690 nm and was subtracted from the 570 nm values. Results were presented as the percentage of viability per condition (inhibitor/concentration) and the absorbance (A570 nm−A690 nm) per time-point for each inhibitor and per cell line. […]

CC(C)(C)NC(=O)N[C@H](C(=O)N1C[C@H]2[C@@H]([C@H]1C(=O)NC(CC1CCC1)C(=O)C(N)=O)C2(C)C)C(C)(C)C (stereo partly drawn) [Boceprevir]
inhibition at 0.5 µM ([1]; 24 hpa): ~85% | inhibition at 0.5 µM ([1]; 48 hpa): ~90% | inhibition at 0.5 µM ([1]; 72 hpa): ~90% | inhibition at 0.5 µM ([1]; 96 hpa): ~90% | cellular viability compared to cells grown without inhibitor ([2]; Boceprevir 100-500 nM, throughout the experiments (24-96 hpa), both cell lines): ≥ 75% | cellular toxicity by kinetic analysis of absorbance values ([2]; Boceprevir, 24, 48, 72 and 96 hours post-addition): did not cause any markedly cellular toxicity
